For the experiment, the system named is CEM cells HIV-1 protection, formazan growth assay. The experiment can be described thus: NCI AIDS Antiviral Assay. Particulars: for IC50: measured here: growth of uninfected CEM cells. The essentials:
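Soluble formazan readout of cell growth; CEM cells ± HIV-1; 5 drug concs. ≥50% protection → retest; ≥50% again = moderately active; reproducible 100% = confirmed active.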

Several values for one entry are separate records, joined by “and”; a condition that tells them apart may be missing. Identical values can stand only once. Activity calls are given as the source filed them.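 How the source made its calls: active means compounds giving half or more protection of infected cells from virus-caused growth loss, again on retest; inactive means the rest.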 Where a SMILES comes first, the peptide text is derived from it. [ ]: non-standard residue; d: D form. pGlu = O=C1CC[CH](C(=O)O)N1

What is called EC50 is the concentration that produces a half-maximal response. By IC50 is commonly meant the concentration at which inhibition is half-maximal. `COc1cc(=O)oc2c3c(ccc12)OC(C)(C)[C@H](OC(=O)C12CCC(C)(C(=O)O1)C2(C)C)[C@@H]3OC(=O)C12CCC(C)(C(=O)O1)C2(C)C` (stereo partly specified): the concentration giving a half-maximal response (EC50) is 0.257 µM and the IC50 was 51.3 µM.

As to `CC(=O)NC(=O)C(C(C)=O)c1ccccc1` (stereo unspecified), the EC50 was > 1150 µM and the concentration for half-maximal inhibition (IC50) was > 1150 µM.

Consider `CNc1ccccc1S(=O)(=O)c1ccccc1C(F)(F)F`, for which the EC50 was > 200 µM and the concentration for half-maximal inhibition (IC50) turned out to be 17 µM.

For `O=C(N/C=C(/c1ccccc1)S(=O)Cc1ccccc1)Nc1ccccc1Cl` (stereo unspecified), the EC50 is > 501 µM and the half-maximal inhibitory concentration (IC50) came to 17.4 µM.

On to `CCOC(=O)Cc1nc2ccc3c(c2[nH]c1=O)C(=O)c1ccccc1C3=O`, for which the EC50 was > 14.5 µM and the IC50 was > 14.5 µM.

Consider `CC(=O)C(CN(C)Cc1ccccc1)C(c1ccccc1)c1c(O)c2ccccc2oc1=O` (stereo unspecified), for which the EC50 was > 38.9 µM and the IC50 is > 38.9 µM.

With `CCOC(=O)NC1=NCC(C)(C)S1`, the outcome was inactive.

Turning to `NC(Cc1ccc(OCc2ccccc2)cn1)C(=O)OCc1ccccc1` (stereo unspecified), the EC50 was > 200 µM and the 50% inhibitory concentration (IC50) is > 200 µM.

As for `O=[N+]([O-])c1cccc(C2=NN(c3ccccc3)C3c4cc(Br)ccc4OCC23)c1` (stereo unspecified), the EC50 is > 11.5 µM and the half-inhibitory concentration (IC50) was > 11.5 µM.

For the molecule `O=C(NCCC1([N+](=O)[O-])CCN(C(=O)c2ccccc2)CC1)c1ccccc1`, the outcome was inactive.

With `COc1ccc2c(c1)c1c3c(ccc4ncn2c43)N(CCN(C)C)CCN=1`, the EC50 was > 20 µM and the IC50 stood at 0.324 µM.

As to `O=C(CCc1cc(O)cc(O)c1)NCCc1cc(OCc2ccccc2)cc(OCc2ccccc2)c1`, the result was inactive.

`CC(C)CCC[C@@H](C)C1CCC2[C@@H]3CC=C4C[C@@H](C(=O)NCCN(C)C)CC[C@]4(C)C3CC[C@@]21C` (stereo partly specified): the result was inactive.

Turning to `Cc1ccc(SSc2ccc(C)cc2[N+](=O)[O-])c([N+](=O)[O-])c1`, the EC50 was > 200 µM; the IC50 is 9.33 µM and 14.5 µM.

Take `CC1=CC(=O)C(=CN2C(=O)/C(=C\c3cccnc3)NC2=S)C(=O)O1`: the EC50 is > 200 µM and the 50% inhibitory concentration (IC50) was > 200 µM.

As for `CCOC(=O)/C(C#N)=C/c1ccc(CO)o1`, the EC50 was > 200 µM and the half-maximal inhibitory concentration (IC50) is > 200 µM.

In the case of `O=c1c(Sc2c(SCSc3cnc4ccccc4c3Sc3c[nH]c4ccccc4c3=O)cnc3ccccc23)c[nH]c2ccccc12`, the EC50 is > 100 µM and the IC50 was > 100 µM.

Regarding `NNC(=O)c1ccc(-n2nnc(C(=O)NN)c2C(=O)NN)cc1`, the EC50 is > 501 µM and the IC50 was > 501 µM.

As for `N#C/C(N)=C(\C#N)NC=NCc1ccccc1`, the EC50 is > 200 µM and the IC50 is > 200 µM.

Take `CC(NC(=O)C(Cc1cnc[nH]1)NC(=O)C1CCC(=O)N1)C(N)=O` (stereo not drawn) ([pGlu]-His-Ala-NH2; configuration not given here): the EC50 was > 200 µM and the concentration for half-maximal inhibition (IC50) was > 200 µM.

For the molecule `CN(C)Cc1cc(/C=C/C(=O)c2ccc(Cl)c(Cl)c2)cc(CN(C)C)c1O`, the EC50 is > 151 µM and the IC50 was determined as 6.31 µM.

For `COC1=NS(=O)(=O)C(C)C(C)(C)O1` (stereo unspecified), the EC50 is > 427 µM and the IC50 was > 427 µM.

Take `O=C(O)c1ccsc1Cc1cccs1`: the EC50 is > 200 µM and the IC50 was > 200 µM.

As for `Cc1cc(C)c(C(=O)O)c(SSc2cc(C)cc(C)c2C(=O)O)c1`, the concentration giving a half-maximal response (EC50) was 46.8 µM and the IC50 was found to be 123 µM.

With `O=C1c2sc(-c3ccc(F)cc3)cc2-n2cccc21`, the EC50 is > 200 µM and the IC50 turned out to be 120 µM.

For the molecule `CCOc1ccccc1NC(=O)CCc1nnc2s/c(=C\CCc3ccccc3)c(=O)n12`, the EC50 is > 79.4 µM and the IC50 is > 79.4 µM.

Turning to `Cc1ccc(S(=O)(=O)c2ccc(NC(=O)SCCC(=O)O)cc2)cc1`, the result was inactive.

In the case of `COc1cc2c3c(c1)SCC(=O)N3CCN2`, the EC50 is > 200 µM and the half-maximal inhibitory concentration (IC50) was > 100 µM.

(Values after PubChem BioAssay AID179 (DTP/NCI, 2004).)
